The source of these data is publication PMC11487905, “Dalbavancin-resistant Staphylococcus epidermidis in vivo selection following a prosthetic joint infection: phenotypic and genomic characterization” (JAC-Antimicrobial Resistance, 2024).

Data set [1] deals with LR-MDRSE PJI. The format is in vivo, patient. As to the method:
A person underwent a revision of a medial unicompartmental knee arthroplasty to total knee arthroplasty (TKA) for progressive arthritis of the lateral joint.
It was subsequently decided to perform debridement, antibiotics and implant retention (DAIR) with a change of modular implants. […] A treatment shift to dalbavancin 1500 mg IV on Days 35, 49, 71 and 106, combined with doxycycline 200 mg/day for 3 months was initiated.
The evolution was considered unfavourable due to a loco-regional inflammatory syndrome with persistent chronic pain.
A revision of the knee was decided upon, with five bacteriological samples collected. As previously, they tested positive with the same LR-MDRSE strain (Day 371). Ceftaroline (1800 mg/day) and doxycycline (200 mg/day) combination treatment was administered for the next 12 weeks. […] His C-reactive protein level was <4 mg/L (reference range: <4 mg/L). However, suppressive doxycycline therapy was maintained (200 mg/day).

The test system of data set [2] is linezolid-resistant MDR S. epidermidis (LR-MDRSE) isolates. The data set can be described thus: microbe, parasite or virus in culture. The format is cell-based, Staphylococcus epidermidis. Conditions: for Increase of MIC between isolates: STA1 (Day 24) to STA3 (Day 240). As to the method:
Isolates were identified by MALDI-TOF mass spectrometry (VITEK MS, bioMérieux, Marcy-l’Étoile, France). Antibiotic susceptibility testing was performed using the AST-P668 bioMérieux card using a VITEK XL automated system (bioMérieux). Dalbavancin, ceftaroline, delafloxacin, tigecycline and daptomycin MICs were determined using a 0.5 McFarland bacterial inoculum on Mueller–Hinton agar plates with gradient strips (Liofilchem, Roseto degli Abruzzi, Italy) incubated for 24 h at 35°C. Interpretation of the susceptibility was made according to the EUCAST 2022 criteria.

Data set [3] is described as follows: Dalbavancin therapeutic drug monitoring: plasma trough concentration and extrapolated fAUC0–24/MIC. The format is in vivo, patient. The note with it: for Plasma trough concentration: 1500 mg IV, LC-MS. An excerpt: We therefore used this methodology for fAUC0–24 determination.
The conditions of data set [4]: cited from earlier work. As to the method: Dalbavancin has a similar mechanism of action and spectrum as vancomycin but with increased potency, higher protein binding and an elimination half-life up to 60 times longer.[10] […] N ... || Because of the long-term duration, dalbavancin therapeutic drug monitoring was performed. Plasma trough concentrations were measured using a validated LC coupled with MS method (Acquity UPLC® BEH C18 and Acquity QDA, Waters, France). […] We therefo ... || Moreover, the clinical infections caused by biofilms poses a serious threat to public health. Staphylococcus spp. biofilms stand out as one of the most prevalent, especially in osteoarticular infection and PJI. […] Thus, new therapeutic strategies targeting biofilms and MDR bacteria are urgently needed.

Data set [5] deals with S. aureus. The note with it: seven isolates of S. aureus (including four vancomycin-intermediate strains); ref 14 (Lepak et al.); cited from earlier work. The text has this:
fAUC0–24/MIC best correlates with in vivo efficacy of dalbavancin.[13]

[6] abbreviates: ceftaroline 1800 mg/day combined with doxycycline 200 mg/day for 12 weeks after knee revision.
[7] abbreviates: Staphylococcus epidermidis, isolate STA1, Day 24, gradient strip, 0.5 McFarland, Mueller–Hinton agar, 24 h at 35°C.
[8] abbreviates: Staphylococcus epidermidis, isolate STA3, Day 240, gradient strip, 0.5 McFarland, Mueller–Hinton agar, 24 h at 35°C.
[9] abbreviates: after four injections of dalbavancin 1500 mg IV.
Setting [10] is: Staphylococcus epidermidis, 576 h.

≈ marks a conversion by molar mass, not a printed value.

Consider `CCO/N=C(\C(=O)N[C@@H]1C(=O)N2C(C(=O)[O-])=C(Sc3nc(-c4cc[n+](C)cc4)cs3)CS[C@H]12)c1nsc(N)n1` [Ceftaroline], for which the “Clinical evolution under treatment” value in data set [1] (setting [6]) was “favourable”. Further, the Tolerability of treatment entry in data set [1] (setting [6]) is on record as “well tolerated”. Besides, the “Susceptibility of the strain (in words)” value in data set [2] (STA1, Day 24) was “susceptible”; in data set [2] (STA3, Day 240), “susceptible”. Also, the MIC came to 1 µg/mL (≈ 1.65 µM) in data set [2] (setting [7]) and 0.75 µg/mL (≈ 1.24 µM) in data set [2] (setting [8]).

In the case of `CN[C@H]1C(=O)N[C@@H]2Cc3ccc(cc3)Oc3cc4cc(c3O[C@@H]3O[C@H](C(=O)O)[C@@H](O)[C@H](O)[C@H]3NC(=O)CCCCCCCCC(C)C)Oc3ccc(cc3Cl)[C@@H](O)[C@@H]3NC(=O)[C@H](NC(=O)[C@@H]4NC(=O)[C@@H](NC2=O)c2cc(cc(O)c2Cl)Oc2cc1ccc2O)c1ccc(O)c(c1)-c1c(O[C@H]2O[C@H](CO)[C@@H](O)[C@H](O)[C@@H]2O)cc(O)cc1[C@@H](C(=O)NCCCN(C)C)NC3=O` [Dalbavancin], in data set [1] (dalbavancin 1500 mg IV on Days 35, 49, 71 and 106, combined with doxycycline 200 mg/day for 3 months, after DAIR), the “Clinical outcome of treatment” value is on record as “treatment failure”. Further, the “Increase of MIC between isolates” value in data set [2] (setting [9]) was found to be 4 fold. In addition, the “Susceptibility of the strain (in words)” value was “susceptible” in data set [2] (STA1, Day 24) and “resistant” in data set [2] (STA3, Day 240). Besides, the MIC stood at 0.032 µg/mL (≈ 0.0176 µM) in data set [2] (isolate STA1, Day 24, gradient strip, 0.5 McFarland, Mueller–Hinton agar, 24 h at 35°C) and 0.5 µg/mL (≈ 0.275 µM) in data set [2] (isolate STA3, Day 240, gradient strip, 0.5 McFarland, Mueller–Hinton agar, 24 h at 35°C). Besides, the Plasma trough concentration is listed as 18 mg/L in data set [3] (Day 49, 14 days after the last dose); 23.6 mg/L in data set [3] (Day 71, 22 days after the last dose); 14.6 mg/L in data set [3] (Day 106, 35 days after the last dose). Further, the “Calculated fAUC0–24/MIC ratio” value in data set [3] (Day 49, assuming an MIC of 0.032 mg/L, extrapolated from single trough, 93% protein bound) is 945; in data set [3] (Day 49, assuming an MIC of 0.5 mg/L) it was 60; in data set [3] (Day 71, assuming an MIC of 0.032 mg/L), 1239; in data set [3] (Day 71, assuming an MIC of 0.5 mg/L) it was 79; in data set [3] (Day 106, assuming an MIC of 0.032 mg/L) it was 766.5; in data set [3] (Day 106, assuming an MIC of 0.5 mg/L), 49. Further, the “Elimination half-life relative to vancomycin” value in data set [4] is “up to 60 times longer”. In data set [4] (plasma), the “Bound to plasma proteins” value is given as 93%. The Half-life entry in data set [4] (prolonged half-life) was “about 14 days”. In addition, in data set [5], the “fAUC0–24/MIC value for 1-log kill” value was 53.3. Also, the “fAUC0–24/MIC value for 2-log kill” value in data set [5] is given as 111.1. In data set [5], the “fAUC0–24/MIC value for net stasis” value is 27.1.

For `CCCCCCCCCC(=O)N[C@@H](Cc1c[nH]c2ccccc12)C(=O)N[C@H](CC(N)=O)C(=O)N[C@@H](CC(=O)O)C(=O)N[C@@H]1C(=O)NCC(=O)N[C@@H](CCCN)C(=O)N[C@@H](CC(=O)O)C(=O)N[C@H](C)C(=O)N[C@@H](CC(=O)O)C(=O)NCC(=O)N[C@H](CO)C(=O)N[C@@H]([C@H](C)CC(=O)O)C(=O)N[C@@H](CC(=O)c2ccccc2N)C(=O)O[C@@H]1C` [Daptomycin], the “Increase of MIC between isolates” value in data set [2] (setting [9]) is given as 6 fold.

In the case of `Nc1nc(-n2cc(C(=O)O)c(=O)c3cc(F)c(N4CC(O)C4)c(Cl)c32)c(F)cc1F` [Delafloxacin], the figures for the MIC in data set [2] (setting [7]) and in data set [2] (setting [8]) were 1 µg/mL (≈ 2.27 µM) and 8 µg/mL (≈ 18.2 µM), respectively.

For `CC[C@H]1OC(=O)[C@H](C)[C@@H](O[C@H]2C[C@@](C)(OC)[C@@H](O)[C@H](C)O2)[C@H](C)[C@@H](O[C@@H]2O[C@H](C)C[C@H](N(C)C)[C@H]2O)[C@](C)(O)C[C@@H](C)C(=O)[C@H](C)[C@@H](O)[C@]1(C)O` [Erythromycin], the MIC in data set [2] (Staphylococcus epidermidis) and in data set [2] (setting [10]) was above 4 µg/mL throughout.

In the case of `C[C@@H]1O[C@@H]1P(=O)(O)O` [Fosfomycin], the MIC in data set [2] (Staphylococcus epidermidis) and in data set [2] (setting [10]) was above 64 µg/mL in each case.

Take `CC(=O)O[C@H]1C[C@@]2(C)[C@@H](C[C@@H](O)[C@H]3[C@@]4(C)CC[C@@H](O)[C@@H](C)[C@@H]4CC[C@@]32C)/C1=C(\CCC=C(C)C)C(=O)O` [Fusidic acid]: the MIC in data set [2] (Staphylococcus epidermidis) and in data set [2] (setting [10]) was above 4 µg/mL in each case.

Regarding `CNC(C)C1CCC(N)C(OC2C(N)CC(N)C(OC3OCC(C)(O)C(NC)C3O)C2O)O1` (centres unmarked) [Gentamicin], the MIC in data set [2] (Staphylococcus epidermidis) and in data set [2] (setting [10]) was above 8 µg/mL throughout.

For the compound `CCC[C@@H]1C[C@@H](C(=O)N[C@@H]([C@H]2O[C@H](SC)[C@H](O)[C@@H](O)[C@H]2O)[C@@H](C)O)N(C)C1` [Lincomycin], the MIC in data set [2] (Staphylococcus epidermidis) and in data set [2] (setting [10]) was above 8 µg/mL each time.

As to `CC(=O)NC[C@H]1CN(c2ccc(N3CCOCC3)c(F)c2)C(=O)O1` [Linezolid], the “Susceptibility of the strain (in words)” value in data set [2] (STA1, Day 24) is listed as “resistant”. Besides, the MIC in data set [2] (Staphylococcus epidermidis) and in data set [2] (setting [10]) was above 4 µg/mL in each case.

Take `CC1COc2c(N3CCN(C)CC3)c(F)cc3c(=O)c(C(=O)O)cn1c23` (centres unmarked) [Ofloxacin]: the MIC in data set [2] (Staphylococcus epidermidis) and in data set [2] (setting [10]) was above 4 µg/mL each time.

Regarding `Cc1onc(-c2ccccc2)c1C(=O)N[C@@H]1C(=O)N2[C@@H]1SC(C)(C)[C@@H]2C(=O)O` [Oxacillin], the MIC in data set [2] (Staphylococcus epidermidis) and in data set [2] (setting [10]) was above 2 µg/mL in each case.

Regarding `CO[C@H]1/C=C/O[C@@]2(C)Oc3c(C)c(O)c4c(O)c(c(/C=N/N5CCN(C)CC5)c(O)c4c3C2=O)NC(=O)/C(C)=C\C=C\[C@H](C)[C@H](O)[C@@H](C)[C@@H](O)[C@@H](C)[C@H](OC(C)=O)[C@@H]1C` [Rifampin], in data set [2] (STA1, Day 24), the “Susceptibility of the strain (in words)” value was “resistant”. Also, the MIC in data set [2] (Staphylococcus epidermidis) and in data set [2] (setting [10]) was above 2 µg/mL in each case.

In the case of `CN(C)c1cc(NC(=O)CNC(C)(C)C)c(O)c2c1C[C@H]1C[C@H]3[C@H](N(C)C)C(O)=C(C(N)=O)C(=O)[C@@]3(O)C(O)=C1C2=O` [Tigecycline], the MIC worked out at 0.19 µg/mL (≈ 0.324 µM) in data set [2] (setting [7]) and 0.25 µg/mL (≈ 0.427 µM) in data set [2] (setting [8]).

Take `NC[C@H]1O[C@H](O[C@H]2[C@H](O)[C@@H](O[C@H]3O[C@H](CO)[C@@H](O)[C@H](N)[C@H]3O)[C@H](N)C[C@@H]2N)[C@H](N)C[C@@H]1O` [Tobramycin]: the MIC in data set [2] (Staphylococcus epidermidis) and in data set [2] (setting [10]) was above 8 µg/mL each time.

With `CN[C@H](CC(C)C)C(=O)N[C@H]1C(=O)N[C@@H](CC(N)=O)C(=O)N[C@H]2C(=O)N[C@H]3C(=O)N[C@H](C(=O)N[C@H](C(=O)O)c4cc(O)cc(O)c4-c4cc3ccc4O)[C@H](O)c3ccc(c(Cl)c3)Oc3cc2cc(c3O[C@@H]2O[C@H](CO)[C@@H](O)[C@H](O)[C@H]2O[C@H]2C[C@](C)(N)[C@H](O)[C@H](C)O2)Oc2ccc(cc2Cl)[C@H]1O` [Vancomycin], the “Increase of MIC between isolates” value in data set [2] is listed as above 5 fold.

Turning to `COc1cccc(OC)c1C(=O)N[C@@H]1C(=O)N2[C@@H]1SC(C)(C)[C@@H]2C(=O)O` [methicillin], the “Susceptibility of the strain (in words)” value in data set [2] (STA1, Day 24) is recorded as “resistant”.
